Assay results as given in patent US20180037605A1, “SYNTHETIC PEPTIDES AND ENZYMATIC FORMATION OF INTRACELLULAR HYDROGELS” (BRANDEIS UNIVERSITY, priority 2015, published 2018).
Converted amounts (≈) assume the structure as drawn. Where two headings read alike, the source gives them in different places.

How the values were obtained:
HeLa cells [1] = test system: HeLa cells
Experimental: The HeLa cell line CCL-2™ was purchased from the American Type Culture Collection (ATCC, Manassas, Va., USA).
The following formula was used to calculate the intracellular concentration of the peptides.
Intracellular concentration=(c*300 uL)/(cell number*4*10^−9 cm^3)
where c=(fluorescence−15406.76945)/74174.36908. An average size for the common cells used in cell culture (HeLa) is 15-20 microns in diameter for a suspended cell (volume 4/3πr^3=4000 μm^3 or 4×10^−9 cm^3) (Moran et al., Cell 141:1262 (2010), which is hereby incorporated by reference in its entirety). Methanol was used to break the cell membrane and fully dissolve compounds 1-t, 2-t, and 3.
To quantify the intracellular concentration of the D-peptide derivatives, the procedure illustrated in FIG. 9A was used to determine the cellular uptake of 1-t, 1, and 2-t after treating HeLa cells with these molecules, respectively. […] The “uptake concentration (Cu)” of 1-t or 1 is the sum of 3 and 1-t (or 1) inside the cells.

[2] = 1.0 wt %, pH 7.4
Experimental: Peptides 1-t/1 were dissolved into distilled water, and the pH of the solution was adjusted carefully by adding 1M NaOH, and this was monitored with pH paper. After the pH of the solution reached 7.4, extra distilled water was added to make the final concentration, followed by the addition of esterase to induce enzymatic gelation.
To elucidate the enzyme-catalyzed self-assembly to form supramolecular nanofibrils inside cells after cellular uptake illustrated in FIG. 2A, the enzymatic transformation of 1-t (or 1) to 3 and the subsequent self-assembly of 3 at the concentration of 1.0 wt % was first examined. To study the enzymatic hydrogelation process of 1-t, analytical HPLC was used to evaluate the rate of enzymatic transformation and transmission electron microscopy (TEM) to examine the self-assembly.

esterase = assay: Esterase-catalysed conversion of 1-t to 3 (analytical HPLC); assay type: biochemical, porcine
PC-12 cells [3] = details: literature (Mendonca et al.); cited from earlier work
HS-5 cells [4] = details: literature (Mendonca et al.); cited from earlier work
HS-5 cells [5] = assay: MTT cell viability, HS-5 stromal cells
Experimental: (§1) The cells were seeded in exponential growth phase in a 96 well plate at a concentration of 1×10^4 cell/well with 100 μL of culture medium. Cells were allowed to attach for 24 hours at 37° C., 5% CO2 and then the culture medium was removed with the help of vacuum pump. Culture medium containing the precursors in gradient concentrations was added to each well (0 μM as control). 10 μL of 5 mg/mL MTT ((3-(4,5-Dimethylthiazol-2-yl)-2,5-diphenyltetrazolium bromide) was added to each well after 24 hours, 48 hours, and 72 hours incubation. After 4 hours incubation of the plated cells in dark place, 100 μL 10% SDS with 0.01 M HCl was added to each well to dissolve the purple formazan and to stop the reduction reaction. 24 hours later, the absorbance of the solution at 595 nm was finally measured with a DTX 880 Multimode Detector.

SKOV3 cells [6] = test system: SKOV3 cells
Experimental: SKOV3 cells were seeded in exponential growth phase in a 96 well plate at a concentration of 1×10^4 cell/well with 100 μL of McCoy's 5A medium modified supplemented with 10% fetal bovine serum (FBS), 100 U/mL penicillin and 100 μg/ml streptomycin. The cells were allowed to attach to the wells for 24 hours at 37° C., 5% CO2. The culture medium was removed and 100 μL culture medium containing compounds (immediately diluted from fresh prepared stock solution of 10 mM) at gradient concentrations (0 μM as the control) was placed into each well. McCoy's 5A medium modified was regarded as blank. After culturing at 37° C., 5% CO2 for 24 hours, 48 hours, and 72 hours, 10 μL of 5 mg/mL MTT (3-(4,5-Dimethylthiazol-2-yl)-2,5-diphenyltetrazolium bromide) was added to each well, and the plated cells were incubated in dark place for 4 hours. 100 μL 10% SDS with 0.01 M HCl was added to each well to stop the reduction reaction and to dissolve the purple formazan. After incubation of the cells at 37° C. for overnight, the OD at 595 nm of the solution was measured in a microplate reader.
as §1

SKOV3 cells [7] = details: read-out: IC50 of cisplatin; literature value (Oumzil et al.) used as comparison for SKOV3 inhibition; cited from earlier work
PC-12 cells [8] = assay: MTT cell viability, PC-12 neuronal cells; assay type: cell-based, rat
Experimental: as §1

A375 cells = assay: MTT cell viability, A375; assay type: cell-based; details: third day (72 h)
Experimental: as §1

SKOV3 cells [9] = assay: LC-MS of cell lysates and culture medium, SKOV3; assay type: cell-based
Experimental: After confirming that CES converts the precursor L-10 or D-10 into the hydrogelator L-12 or D-12, the stability of the precursors (L-10 or D-10) when incubated with the ovarian cancer cells was determined. After culturing the precursors with SKOV3 or A2780cis cells at 37° C. for 4 hours, the cell lysates and culture medium were collected for liquid chromatography-mass spectrometry (LC-MS) analysis and the intracellular concentrations of the precursors, the hydrogelators, and the relevant proteolyzed products were determined. After incubation with SKOV3 or A2780cis cells for 4 hours, more than 85% of the precursors (L-10 or D-10) turned into the corresponding hydrogelators (L-12 or D-12; see Table 1 below).

[10] = Systemic toxicity after intravenous injection in mice; details: 5 to 20 mg/kg, after 7 days
[11] = test system: co-cultured HS-5 and A2780cis cells; assay: Cell viability of co-cultured HS-5 and A2780cis cells; assay type: cell-based; details: L-10 73 μg/mL, third day
Experimental: 5×10^3 of SKOV3 cells (or A2780cis) and 5×10^3 HS-5 cells per well were seeded together and co-cultured in DMEM medium. Based on the results in FIG. 22, the concentrations of L-10 and D-10 at 73 and 37 μg/mL, respectively, were chosen. […] The inhibitory activities of L-10 and D-10 towards the co-culture agree well with their cytotoxicity against A2780cis, SKOV3, and H-5 cells. […] For example, on the first day, the cell viabilities of co-cultured HS-5 and SKOV3 cells and co-cultured HS-5 and A2780cis cells treated by D-10 (37 μg/mL) were 79% and 80%, respectively. While on the third day, the cell viabilities dropped to 44% and 57%, respectively. […] Contrary to the case of D-10, the efficacies of L-10 were almost the same between day two and day three (FIG. 25A), which agreed with the lower in vivo stability of L-10 than that of D-10.

MES-SA cells = assay: MTT cell viability, MES-SA; assay type: cell-based; details: third day (72 h)
Experimental: as §1

HeLa cells [12] = assay: MTT cell viability, HeLa; assay type: cell-based; details: third day (72 h)
Experimental: D-7 and D-10 (FIG. 12A), the enantiomers of L-7 and L-10, were prepared as described in Example 3. HeLa and SKOV3 cells were used in an MTT assay for assessing cytotoxicity of the peptides against these cancer cell lines.

HepG2 cells = assay: MTT cell viability, HepG2; assay type: cell-based; details: third day (72 h)
Experimental: as §1

HS-5 cells [13] = details: 72 h
Experimental: as §1

Saos-2 cells = assay: MTT cell viability, Saos-2; assay type: cell-based; details: third day (72 h)
Experimental: as §1

HCC1937 cells = assay: MTT cell viability, HCC1937; assay type: cell-based; details: third day (72 h)
MCF-7 cells = assay: MTT cell viability, MCF-7; assay type: cell-based; details: third day (72 h)
Experimental: as §1

A2780 cells = assay: MTT cell viability, A2780; assay type: cell-based; details: third day (72 h)
T98G cells = assay: MTT cell viability, T98G; assay type: cell-based
Experimental: as §1

MES-SA/D×5 cells = assay: MTT cell viability, MES-SA/D×5; assay type: cell-based; details: third day (72 h)
Experimental: as §1

U87MG cells = assay: MTT cell viability, U87MG; assay type: cell-based
Experimental: as §1

in vitro = details: human
Experimental: as §1

HeLa cells [14] = details: 200 μM, 24 hours
[15] = 200 μM in culture medium, 24 hours
[16] = SKOV3 cell lysates, 4 hours, 37° C., 20 μm D-10 or 50 μm L-10

In the case of `O=C(O)CCC(=O)OCCNC(=O)[C@@H](Cc1ccccc1)NC(=O)[C@@H](Cc1ccccc1)NC(=O)CCNc1ccc([N+](=O)[O-])c2nonc12` [compound 1], the “uptake concentration (Cu) / intracellular concentration” value (HeLa cells [1]; [15]) is reported as “hardly detected” and the solubility [2] is reported as “less soluble than 1-t”.
In the case of `O=C(CCC(=O)OCCNC(=O)[C@@H](Cc1ccccc1)NC(=O)[C@@H](Cc1ccccc1)NC(=O)CCNc1ccc([N+](=O)[O-])c2nonc12)NCCS(=O)(=O)O` [1-t], the “1-t converted to 3 (HPLC)” value (esterase; 1-t 100 μM, esterase 1 U/mL, 24 hours) is reported as “more than 50%”, the metabolised at 24 h, 1 wt % (esterase; pig, esterase from porcine liver, pH 7.4, 1-t 1.0 wt %, esterase 1 U/ml, 24 hours, read-out: 1-t converted to 3 (HPLC)) is reported as ~11% and the metabolised at 1 min, 1 wt % (esterase; pig, esterase from porcine liver, 1-t 1.0 wt %, pH 7.4, esterase 1 U/ml, 1 min, read-out: 1-t converted to 3 (analytical HPLC)) is reported as 2.5%. For the same compound, the “enhancement of cellular uptake compared with incubation concentration” value (HeLa cells [1]; 50 μM, 24 hours) was “about 3 fold”, the “uptake concentration (Cu) / intracellular concentration” value (HeLa cells [1]; [15]) was 1.6 mM and the “intracellular concentration after washing five times with PBS buffer” value (HeLa cells [1]; 200 μM, 24 hour incubation) was 1.4 mM. The “uptake concentration relative to incubation (extracellular) concentration” value (HeLa cells [1]; 200 μM, 24 hours) was 8 fold, the Cu (HeLa cells [1]; 200 μM, 48 hours) was 2.4 mM and the “enhancement of cellular uptake compared with incubation concentration” value (HeLa cells [1]; 200 μM, 48 hours) was 12 fold. The “enhancement of cellular uptake compared with incubation concentration” value (HeLa cells [1]; 500 μM, 24 hours) was ~4.5 fold, the intracellular concentration (HeLa cells [1]; incubation medium 25 μM, 24 hours) was 28 µM and the solubility [2] was “significantly enhanced the solubility”.
In the case of `N.N.[Cl][Pt][Cl]` [cisplatin, reference compound], the “inhibition of A2780cis cells” value (A2780cis cells; 37 μg/mL, third day) is listed as “about 98%”, the “inhibition of PC-12 cells” value (PC-12 cells [3]) is listed as “significantly inhibiting” and the “inhibition of HS-5 cells” value (HS-5 cells [4]) is listed as “significantly inhibiting”. The “HS-5 cells killed / inhibited” value (HS-5 cells [5]; 37 μg/mL, third day) was ~100%, the “inhibition of SKOV3 cells” value (SKOV3 cells [6]; 37 μg/mL, third day) was 90% and the “inhibition of SKOV3 cells” value (SKOV3 cells [6]; CP 6 μg/mL alone, 72 hours) was 48%. The “cell death of SKOV3 cells” value (SKOV3 cells [6]; CP 6 μg/mL alone, 72 hours (control compound experiment)) was “about 40%” and the IC50 (SKOV3 cells [7]) was 35 µM.
For `O=C(CCC(=O)OCCNC(=O)[C@H](Cc1ccccc1)NC(=O)[C@H](Cc1ccccc1)NC(=O)Cc1ccc2ccccc2c1)NCCS(=O)(=O)O` [L-10], the “IC50, A2780cis” value (A2780cis cells; third day (72 h)) was 39 µg/mL (≈ 53.4 µM), the “inhibition of PC-12 cells” value (PC-12 cells [8]; 20 μM (D-10) and 50 μM (L-10)) was “hardly inhibited” and the “IC50, PC-12” value (PC-12 cells [8]; third day (72 h)) was “above 73 μg/mL”. For the same compound, the “IC50, A375” value (A375 cells) was 94 µg/mL (≈ 129 µM), the “cumulative intracellular concentration of precursor and hydrogelator relative to incubation concentration” value (SKOV3 cells [9]; 4 hours incubation) was “about 10 fold” and the “Ratio of hydrogelator to precursor after 4 hours” value (SKOV3 cells [9]; SKOV3 cell lysates, 20 μm D-10 or 50 μm L-10) was 6.95. For the same compound, the “Hydrogelator (12) intracellular concentration” value (SKOV3 cells [9]; [16]) was 431 μm, the “Precursor (10) intracellular concentration” value (SKOV3 cells [9]; [16]) was 62 μm and the “effect on weight and organ index of mice” value [10] was “hardly affected”. The “inhibition of co-cultured HS-5 and A2780cis cells” value [11] was “about 57%”, the “IC50, MES-SA” value (MES-SA cells) was 40 µg/mL (≈ 54.7 µM) and the “IC50, HeLa” value (HeLa cells [12]) was 53 µg/mL (≈ 72.5 µM). For the same compound, the “IC50, HepG2” value (HepG2 cells) was 97 µg/mL (≈ 133 µM), the “IC50, HS-5” value (HS-5 cells [13]) was “above 73 μg/mL” and the “inhibition of HS-5 cells” value (HS-5 cells [5]; 20 μM (D-10) and 50 μM (L-10)) was “hardly inhibited”. The “IC50, Saos-2” value (Saos-2 cells) was 80 µg/mL (≈ 109 µM), the “IC50, HCC1937” value (HCC1937 cells) was 29 µg/mL (≈ 39.7 µM) and the “IC50, MCF-7” value (MCF-7 cells) was 28 µg/mL (≈ 38.3 µM). The “IC50, SKOV3” value (SKOV3 cells [6]; 72 h) was 46 µg/mL (≈ 62.9 µM), the “inhibition of SKOV3 cells by mixture with CP” value (SKOV3 cells [6]; 72 h, 37 μg/mL) was ~87% and the “IC50, A2780” value (A2780 cells) was 49 µg/mL (≈ 67 µM). For the same compound, the “cell viability of T98G” value (T98G cells; 365 μg/mL of L-10) was ~60%, the “cytotoxicity toward T98G” value (T98G cells; at or below 146 μg/mL, 72 h) was “little cytotoxicity” and the “IC50, MES-SA/D×5” value (MES-SA/D×5 cells) was 322 µg/mL (≈ 441 µM). For the same compound, the “cell viability of U87MG” value (U87MG cells; 365 μg/mL of L-10) was “about 70%”, the “cytotoxicity toward U87MG” value (U87MG cells; at or below 146 μg/mL, 72 h) was “little cytotoxicity” and the viability at 3 day, 73 μg/mL (in vitro) was ~80%.
With `O=C(CCC(=O)NCCS(=O)(=O)O)NCCNC(=O)[C@@H](Cc1ccccc1)NC(=O)[C@@H](Cc1ccccc1)NC(=O)CCNc1ccc([N+](=O)[O-])c2nonc12` [2-t] the stability inside cells (HeLa cells [14]) was “remained intact inside cells”, the Cu (HeLa cells [1]; [15]) was 0.8 mM and the “uptake concentration (Cu) / intracellular concentration” value (HeLa cells [1]; [15]) was 0.8 mM. For the same compound, the “intracellular concentration after first wash” value (HeLa cells [1]; 200 μM, 24 hour incubation) was 0.6 mM, the “intracellular concentration after washing five times with PBS buffer” value (HeLa cells [1]; 200 μM, 24 hour incubation) was 0.08 mM and the “decrease of intracellular concentration by each wash” value (HeLa cells [1]; 200 μM, 24 hour incubation, PBS wash) was “about 25%”. The “uptake concentration relative to incubation (extracellular) concentration” value (HeLa cells [1]; 200 μM, 24 hours) was 4 fold.
